Patent US5026703A, “Peptide oxytocin antagonists” (priority 1990, dated 1991)
Where two headings read alike, the source gives them in different places. *1 amine or outer side, *2 acyl side, *3 side chain or, on linkers, in order; H or OH if unused. Where a SMILES comes first, the peptide text is derived from it. [ ]: non-standard residue; d: D form. X12 = C=CCSC(=N[C@H](C(=O)[*:2])[C@@H](C)CC)[C@@H](Cc1ccccc1)N[*:1]; X13 = CC[C@H](C)[C@H](NC(=S)[C@@H](Cc1ccccc1)N[*:1])C(=O)[*:2]; X11 = CC(C)(C)OC(=O)CSC1=NN([*:1])[C@H](C(=O)[*:2])CC1; X6 = CN(C)C[C@H]1C=NN([*:1])[C@H](C(=O)[*:2])C1; X10 = O=C1CC[C@@H](C(=O)[*:2])N([*:1])N1; Piz(1,6-dehydro) = O=C(O)[C@@H]1CCC=NN1; X3 = C=C1C=NN([*:1])[C@H](C(=O)[*:2])C1; X7 = CSC1=NN([*:1])[C@H](C(=O)[*:2])CC1; dPiz(1,6-dehydro) = O=C(O)[C@H]1CCC=NN1; X16 = CN1CCC[C@@H](C(=O)[*:2])N1[*:1]; X15 = CN1CCC[C@H](C(=O)[*:2])N1[*:1]; dNMeCha = CN[C@H](CC1CCCCC1)C(=O)O; X5 = O=C([C@@H]1CCCNN1[*:1])[*:2]; X1 = O=C([C@H]1CCCNN1[*:1])[*:2]; dNMeF = CN[C@H](Cc1ccccc1)C(=O)O; dCha = N[C@H](CC1CCCCC1)C(=O)O

Experiments:
[1] = molecular target: AVP-V2 sites (Rattus norvegicus, UniProt Q00788); experiment: [3H]AVP radioligand binding to rat kidney medulla crude membrane preparation (AVP-V2 sites); conditions: rat kidney medulla membranes; 2 nM [3H]AVP; 30 min at 30° C.; read-out: Receptor Binding Results IC50 (nM) [^3 H]-AVP-V2
Sequence of AVP-V2 sites (Q00788 whole entry): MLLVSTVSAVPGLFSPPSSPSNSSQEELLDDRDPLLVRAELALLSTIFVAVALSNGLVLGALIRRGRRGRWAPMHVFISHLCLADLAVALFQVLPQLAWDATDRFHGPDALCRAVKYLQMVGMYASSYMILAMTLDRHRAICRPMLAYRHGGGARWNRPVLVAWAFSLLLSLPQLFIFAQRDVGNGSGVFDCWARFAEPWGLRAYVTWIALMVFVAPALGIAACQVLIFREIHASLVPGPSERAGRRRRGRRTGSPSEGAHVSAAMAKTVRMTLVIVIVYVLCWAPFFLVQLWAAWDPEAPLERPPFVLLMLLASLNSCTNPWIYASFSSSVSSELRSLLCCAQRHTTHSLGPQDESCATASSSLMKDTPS
Method: (§1) Nonspecific binding (5-10% of the total binding) was determined using 10 μM unlabeled AVP, and the binding reaction was terminated by filtration as described above for the [^3 H]OT binding assay.
(§2) +Butlen, D; Guillon, G; Rajerison, RM; Jard, S; Sawyer, WH; Manning, M. 1978 Mol Pharmacol 14:1006.

[2] = molecular target: AVP-V1 sites (Rattus norvegicus, UniProt P30560); experiment: [3H]AVP radioligand binding to male rat liver crude membrane preparation (AVP-V1 sites)
Sequence of AVP-V1 sites (P30560 whole entry): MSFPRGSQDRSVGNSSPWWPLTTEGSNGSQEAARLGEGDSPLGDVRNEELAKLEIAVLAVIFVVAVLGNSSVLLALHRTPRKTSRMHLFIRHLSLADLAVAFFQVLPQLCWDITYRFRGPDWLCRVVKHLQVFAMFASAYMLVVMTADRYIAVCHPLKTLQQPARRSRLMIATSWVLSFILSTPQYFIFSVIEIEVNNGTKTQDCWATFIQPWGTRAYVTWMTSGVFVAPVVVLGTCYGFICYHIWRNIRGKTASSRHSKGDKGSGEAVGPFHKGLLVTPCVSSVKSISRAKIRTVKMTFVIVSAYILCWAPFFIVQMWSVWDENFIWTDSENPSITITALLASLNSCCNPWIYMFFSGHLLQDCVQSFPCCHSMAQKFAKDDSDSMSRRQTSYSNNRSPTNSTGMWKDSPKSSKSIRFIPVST
Method: as §1, §2

[3] = molecular target: T1, uterine OT receptors (Rattus norvegicus, UniProt P70536); experiment: [3H]OT radioligand binding to uterine OT receptors, crude membrane preparation
T1 construct: from tissue; host or cells: uterus of DES-treated rats, crude membranes
T1 sequence (P70536 1-388): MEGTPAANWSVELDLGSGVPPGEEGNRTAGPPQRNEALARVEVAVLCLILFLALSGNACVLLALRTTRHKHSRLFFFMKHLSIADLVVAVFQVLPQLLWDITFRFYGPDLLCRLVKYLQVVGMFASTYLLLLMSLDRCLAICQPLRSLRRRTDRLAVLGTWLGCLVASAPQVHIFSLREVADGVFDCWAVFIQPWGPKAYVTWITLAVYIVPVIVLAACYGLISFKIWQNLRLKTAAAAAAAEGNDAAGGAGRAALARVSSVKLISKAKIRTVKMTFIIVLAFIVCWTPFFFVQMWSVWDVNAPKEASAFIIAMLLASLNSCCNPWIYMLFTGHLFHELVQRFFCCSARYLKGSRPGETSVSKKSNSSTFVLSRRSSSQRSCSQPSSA
Method: The high affinity binding of [^3 H]OT ([tyrosyl, 3,5-[^3 H]OT; 30-60 Ci/mmol; New England Nuclear Boston, Mass.) to uterine OT receptors was based on an assay* using a crude membrane preparation of uteri taken from diethylstilbestrol dipropionate (DES)-treated (0.3 mg/kg, ip; 18-24) rats. Competition studies were conducted at equilibrium (60 min; 22° C.) using 1 nM [^3 H]OT in the following assay buffer: 50 mM Tris-HCl, 5 mM MgCl2, and 0.1% BSA, pH 7.4. Nonspecific binding (10% of the total binding) was determined using 1 μM unlabeled OT and the binding reaction was terminated by filtration through glass fiber filters using a cell harvester (model 7019, Skatron, Inc., Sterling, Va.).
*Fuchs, A-R; Fuchs, F; Soloff, MS. 1985 J. Clin. Endocrinol. Metab. 60:37.

[4] = male rat liver membranes, 1 nM [3H]AVP, 30 min at 30° C., read-out: Receptor Binding Results IC50 (nM) [^3 H]-AVP-V1
[5] = uteri of DES-treated rats, 1 nM [3H]OT, 60 min, 22° C., inhibits specific binding by 50%, read-out: Receptor Binding Results IC50 (nM) [3H]OT

Work on `CC[C@H](C)[C@@H]1NC(=O)[C@@H](Cc2ccccc2)NC(=O)[C@@H]2CCCN2C(=O)[C@@H](Cc2ccccc2)N(C)C(=O)[C@@H]2C[C@@H](CN(C)C)C=NN2C(=O)[C@H]2CCC=NN2C1=O` [Example 18, cyclo-[D-Phenylalanyl-L-isoleucyl-D-2,3,4,5-tetrahydro-3-pyridazinecarbonyl-trans-5-(dimethylamino)methyl-L-2,3,4,5,-tetrahydro-3-pyridazinecarbonyl-N-methyl-D-phenylalanyl-L-prolyl] monoacetate] (cyclo(I[dPiz(1,6-dehydro)][X6][dNMeF]P[dF])) yielded an IC50 [1] of 2800 nM, an IC50 [2, 4] of 1850 nM and an IC50 [3, 5] of 7.8 nM.
`CC[C@H](C)[C@@H]1NC(=O)[C@@H](Cc2ccccc2)NC(=O)[C@@H]2CCCN2C(=O)[C@@H](Cc2ccccc2)N(C)C(=O)[C@@H]2CCCN(C)N2C(=O)[C@H]2CCCN(C)N2C1=O` [Example 6, cyclo-[D-Phenylalanyl-L-isoleucyl-D-hexahydro-1-methyl-3-pyridazinecarbonyl-L-hexahydro-1-methyl-3-pyridazinecarbonyl-N-methyl-D-phenylalanyl-L-prolyl]] (cyclo(I[X15][X16][dNMeF]P[dF])) was tested, and the IC50 [3] was 6250 nM.
`C=CCSC1=N[C@@H]([C@@H](C)CC)C(=O)N2N=CCC[C@@H]2C(=O)N2N=CCC[C@H]2C(=O)N(C)[C@H](Cc2ccccc2)C(=O)N2CCC[C@H]2C(=O)N[C@@H]1Cc1ccccc1` [Example 12, cyclo-[(R)-N-(2-amino-3-phenyl-1-(2-propenylthio)-propylidene)-L-isoleucyl-D-2,3,4,5-tetrahydro-3-pyridazinecarbonyl-L-2,3,4,5-tetrahydro-3-pyridazine-carbonyl-N-methyl-D-phenylalanyl-L-prolyl]] (cyclo(P[X12][dPiz(1,6-dehydro)][Piz(1,6-dehydro)][dNMeF])) showed an IC50 [1] greater than 10000 nM, an IC50 [2, 4] greater than 10000 nM and an IC50 [3, 5] of 710 nM.
Work on `CC[C@H](C)[C@@H]1NC(=O)[C@@H](Cc2ccccc2)NC(=O)[C@@H]2CCCN2C(=O)[C@@H](Cc2ccccc2)N(C)C(=O)[C@@H]2CCC(=O)NN2C(=O)[C@H]2CCCNN2C1=O` [Example 4, cyclo-[D-Phenylalanyl-L-isoleucyl-D-hexahydro-3-pyridazinecarbonyl-L-hexahydro-6-oxo-3-pyridazinecarbonyl-N-methyl-D-phenylalanyl-L-prolyl]] (cyclo(I[X1][X10][dNMeF]P[dF])) yielded an IC50 [1] of 18900 nM, an IC50 [2, 4] of 13900 nM and an IC50 [3] of 217 nM.
`C=C1C=NN2C(=O)[C@H]3CCC=NN3C(=O)[C@H]([C@@H](C)CC)NC(=S)[C@@H](Cc3ccccc3)NC(=O)[C@@H]3CCCN3C(=O)[C@@H](Cc3ccccc3)N(C)C(=O)[C@@H]2C1` [Example 19, cyclo-[D-Thiophenylalanyl-L-isoleucyl-D-2,3,4,5-tetrahydro-3-pyridazinecarbonyl-5-methylene-L-2,3,4,5-tetrahydro-3-pyridazinecarbonyl-N-methyl-D-phenylalanyl-L-prolyl]] showed an IC50 [1] greater than 1000 nM, an IC50 [2, 4] greater than 1000 nM and an IC50 [3, 5] of 3.6 nM.
With `CC[C@H](C)[C@@H]1NC(=O)[C@@H](CC2CCCCC2)NC(=O)[C@@H]2CCCN2C(=O)[C@@H](CC2CCCCC2)N(C)C(=O)[C@@H]2CCC=NN2C(=O)[C@H]2CCC=NN2C1=O` [Example 2, cyclo-[D-3-Cyclohexylalanyl-L-isoleucyl-D-2,3,4,5-tetrahydro-3-pyidazinecarbonyl-L-2,3,4,5-tetrahydro-3-pyridazinecarbonyl-3-cyclohexyl-N-methyl-D-alanyl-L-prolyl]] (cyclo(I[dPiz(1,6-dehydro)][Piz(1,6-dehydro)][dNMeCha]P[dCha])) the IC50 [3, 5] was 94 nM.
Work on `CC[C@H](C)[C@@H]1NC(=O)[C@@H](Cc2ccccc2)NC(=O)[C@@H]2CCCN2C(=O)[C@@H](Cc2ccccc2)N(C)C(=O)[C@@H]2CCC(SC)=NN2C(=O)[C@H]2CCC=NN2C1=O` [Example 5, cyclo-[D-Phenylalanyl-L-isoleucyl-D-2,3,4,5-tetrahydro-3-pyidazinecarbonyl-L-2,3,4,5-tetrahydro-6-methylthio-3-pyridazinecarbonyl-N-methyl-D-phenylalanyl-L-prolyl]] (cyclo(I[dPiz(1,6-dehydro)][X7][dNMeF]P[dF])) yielded an IC50 [1] of 1020 nM, an IC50 [2, 4] of 820 nM and an IC50 [3, 5] of 27 nM.
In the case of `CC[C@H](C)[C@@H]1NC(=S)[C@@H](Cc2ccccc2)NC(=O)[C@@H]2CCCN2C(=O)[C@@H](Cc2ccccc2)N(C)C(=O)[C@@H]2CCC=NN2C(=O)[C@H]2CCC=NN2C1=O` [Example 10, cyclo-[D-Thiophenylalanyl-L-isoleucyl-D-2,3,4,5-tetrahydro-3-pyridazinecarbonyl-L-2,3,4,5-tetrahydro-3-pyridazinecarbonyl-N-methyl-D-phenylalanyl-L-prolyl]] (cyclo(P[X13][dPiz(1,6-dehydro)][Piz(1,6-dehydro)][dNMeF])), the IC50 [1] is reported as 270 nM, the IC50 [2, 4] is reported as 300 nM and the IC50 [3, 5] is reported as 1 nM.
In the case of `CC[C@H](C)[C@@H]1NC(=O)[C@@H](CC2CCCCC2)NC(=O)[C@@H]2CCCN2C(=O)[C@@H](CC2CCCCC2)N(C)C(=O)[C@@H]2CCCNN2C(=O)[C@H]2CCCNN2C1=O` [Example 1, cyclo-[D-3-Cyclohexylalanyl-L-isoleucyl-D-hexahydro-3-pyridazinecarbonyl-L-hexahydro-3-pyridazinecarbonyl-3-cyclohexyl-N-methyl-D-alanyl-L-prolyl]] (cyclo(I[X1][X5][dNMeCha]P[dCha])), the IC50 [1] is reported as 14800 nM, the IC50 [2, 4] is reported as 2400 nM and the IC50 [3, 5] is reported as 725 nM.
`C=C1C=NN2C(=O)[C@H]3CCC=NN3C(=O)[C@H]([C@@H](C)CC)NC(=O)[C@@H](Cc3ccccc3)NC(=O)[C@@H]3CCCN3C(=O)[C@@H](Cc3ccccc3)N(C)C(=O)[C@@H]2C1` [Example 20, cyclo-[D-Phenylalanyl-L-isoleucyl-D-2,3,4,5-tetrahydro-3-pyridazinecarbonyl-5-methylene-L-2,3,4,5,-tetrahydro-3-pyridazinecarbonyl-N-methyl-D-phenylalanyl-L-prolyl]] (cyclo(I[dPiz(1,6-dehydro)][X3][dNMeF]P[dF])) was tested, and the IC50 [1] was greater than 10000 nM, the IC50 [2, 4] was greater than 10000 nM and the IC50 [3, 5] was 37 nM.
`CC[C@H](C)[C@@H]1NC[C@@H](Cc2ccccc2)NC(=O)[C@@H]2CCCN2C(=O)[C@@H](Cc2ccccc2)N(C)C(=O)[C@@H]2CCC=NN2C(=O)[C@H]2CCC=NN2C1=O` [Example 7, cyclo-[N-(2-Amino-3-phenylpropyl)-L-isoleucyl-D-2,3,4,5-tetrahydro-3-pyridazinecarbonyl-L-2,3,4,5-tetrahydro-3-pyridazinecarbonyl-N-methyl-D-phenylalanyl-L-prolyl]] showed an IC50 [1] greater than 30000 nM, an IC50 [2, 4] greater than 30000 nM and an IC50 [3, 5] of 30000 nM.
`CC[C@H](C)[C@@H]1NC(=O)[C@@H](Cc2ccccc2)NC(=O)[C@@H]2CCCN2C(=O)[C@@H](Cc2ccccc2)N(C)C(=O)[C@@H]2CCC(SCC(=O)OC(C)(C)C)=NN2C(=O)[C@H]2CCC=NN2C1=O` [Example 9, cyclo-[D-Phenylalanyl-L-isoleucyl-D-2,3,4,5-tetrahydro-3-pyridazinecarbonyl-6-[[2-(1,1-dimethylethoxy)-2-oxoethyl]thio]-L-2,3,4,5-tetrahydro-3-pyridazine-carbonyl-N-methyl-D-phenylalanyl-L-prolyl]] (cyclo(I[dPiz(1,6-dehydro)][X11][dNMeF]P[dF])) showed an IC50 [1] of 10000 nM, an IC50 [2] of 10000 nM and an IC50 [3, 5] of 564 nM.
Work on `CC[C@H](C)[C@@H]1NC(=S)[C@@H](Cc2ccccc2)NC(=S)[C@@H]2CCCN2C(=O)[C@@H](Cc2ccccc2)N(C)C(=O)[C@@H]2CCC=NN2C(=O)[C@H]2CCC=NN2C1=O` [Example 11, cyclo-[D-Thiophenylalanyl-L-isoleucyl-D-2,3,4,5-tetrahydro-3-pyridazinecarbonyl-L-2,3,4,5-tetrahydro-3-pyridazinecarbonyl-N-methyl-D-phenylalanyl-L-thioprolyl]] yielded an IC50 [1] of 430 nM, an IC50 [2, 4] of 200 nM and an IC50 [3, 5] of 4.9 nM.
`CC[C@H](C)[C@@H]1NC(=O)[C@@H](Cc2ccccc2)NC(=O)[C@@H]2CCCN2C(=O)[C@@H](Cc2ccccc2)N(C)C(=O)[C@@H]2CCC(=O)NN2C(=O)[C@H]2CCC=NN2C1=O` [Example 3, cyclo-[D-Phenylalanyl-L-isoleucyl-D-2,3,4,5-tetrahydro-3-pyridazinecarbonyl-L-hexahydro-6-oxo-3-pyridazinecarbonyl-N-methyl-D-phenylalanyl-L-prolyl]] (cyclo(I[dPiz(1,6-dehydro)][X10][dNMeF]P[dF])) gave an IC50 [1] of 17000 nM, an IC50 [2, 4] of 4700 nM and an IC50 [3, 5] of 20 nM.
